Broadly, the IC50 is the concentration that gives 50% inhibition.

Holding throughout (assay type): biochemical
Experiment [1] has as its target T1, ITK (Homo sapiens, UniProt Q08881).
T1 sequence (Q08881 1-620): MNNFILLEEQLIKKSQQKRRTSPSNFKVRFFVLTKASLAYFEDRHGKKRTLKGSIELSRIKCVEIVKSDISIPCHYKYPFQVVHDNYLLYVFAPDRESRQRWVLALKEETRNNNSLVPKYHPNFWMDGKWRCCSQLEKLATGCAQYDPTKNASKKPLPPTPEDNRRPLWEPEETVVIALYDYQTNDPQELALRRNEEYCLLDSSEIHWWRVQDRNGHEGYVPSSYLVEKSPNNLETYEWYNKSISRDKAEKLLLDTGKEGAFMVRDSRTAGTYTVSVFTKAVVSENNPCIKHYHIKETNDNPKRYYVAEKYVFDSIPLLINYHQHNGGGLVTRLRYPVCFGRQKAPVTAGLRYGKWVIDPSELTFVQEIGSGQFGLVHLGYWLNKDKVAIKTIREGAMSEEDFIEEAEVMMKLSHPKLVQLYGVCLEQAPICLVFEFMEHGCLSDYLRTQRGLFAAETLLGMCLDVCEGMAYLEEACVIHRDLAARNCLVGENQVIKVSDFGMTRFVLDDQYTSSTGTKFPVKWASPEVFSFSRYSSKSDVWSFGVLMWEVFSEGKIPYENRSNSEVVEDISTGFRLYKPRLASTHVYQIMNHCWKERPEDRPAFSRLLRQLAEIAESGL
Description: Inhibition of a panel of kinases, in vitro HotSpot kinase assay: ITK. The procedure: (§1) The degree of inhibition of a panel of kinases is determined using the in vitro HotSpot kinase assay (purified enzymes, ^33P-ATP, an appropriate substrate and 1 μM ATP).

The target of experiment [2] is SRC (Homo sapiens, UniProt P12931). Description: Inhibition of a panel of kinases, in vitro HotSpot kinase assay: SRC. As for the experimental part:
as §1

Experiment [3] addresses T2, TEC (Homo sapiens, UniProt P42680).
T2 sequence (P42680 1-631): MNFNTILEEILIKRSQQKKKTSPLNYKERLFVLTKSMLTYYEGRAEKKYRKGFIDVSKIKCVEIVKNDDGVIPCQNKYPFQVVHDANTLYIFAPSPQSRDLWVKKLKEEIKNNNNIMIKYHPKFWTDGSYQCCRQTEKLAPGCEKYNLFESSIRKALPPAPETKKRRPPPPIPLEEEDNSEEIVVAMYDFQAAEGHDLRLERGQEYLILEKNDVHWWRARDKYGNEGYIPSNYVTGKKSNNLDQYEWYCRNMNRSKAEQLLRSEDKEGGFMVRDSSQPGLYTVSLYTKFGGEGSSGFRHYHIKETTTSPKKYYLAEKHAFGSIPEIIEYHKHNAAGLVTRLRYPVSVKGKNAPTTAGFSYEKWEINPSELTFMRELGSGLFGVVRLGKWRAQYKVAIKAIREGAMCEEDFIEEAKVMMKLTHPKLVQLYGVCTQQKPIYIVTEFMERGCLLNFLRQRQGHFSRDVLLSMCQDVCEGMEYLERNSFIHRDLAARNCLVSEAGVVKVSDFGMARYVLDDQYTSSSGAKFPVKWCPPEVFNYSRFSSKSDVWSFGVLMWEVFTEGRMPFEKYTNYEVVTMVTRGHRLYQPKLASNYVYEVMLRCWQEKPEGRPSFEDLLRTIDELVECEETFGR
The experiment can be described thus: Inhibition of a panel of kinases, in vitro HotSpot kinase assay: TEC. As for the experimental part: as §1

Setting [4] is: D-compounds panel data, 1 μM ATP.

Sequence of SRC (P12931 whole entry): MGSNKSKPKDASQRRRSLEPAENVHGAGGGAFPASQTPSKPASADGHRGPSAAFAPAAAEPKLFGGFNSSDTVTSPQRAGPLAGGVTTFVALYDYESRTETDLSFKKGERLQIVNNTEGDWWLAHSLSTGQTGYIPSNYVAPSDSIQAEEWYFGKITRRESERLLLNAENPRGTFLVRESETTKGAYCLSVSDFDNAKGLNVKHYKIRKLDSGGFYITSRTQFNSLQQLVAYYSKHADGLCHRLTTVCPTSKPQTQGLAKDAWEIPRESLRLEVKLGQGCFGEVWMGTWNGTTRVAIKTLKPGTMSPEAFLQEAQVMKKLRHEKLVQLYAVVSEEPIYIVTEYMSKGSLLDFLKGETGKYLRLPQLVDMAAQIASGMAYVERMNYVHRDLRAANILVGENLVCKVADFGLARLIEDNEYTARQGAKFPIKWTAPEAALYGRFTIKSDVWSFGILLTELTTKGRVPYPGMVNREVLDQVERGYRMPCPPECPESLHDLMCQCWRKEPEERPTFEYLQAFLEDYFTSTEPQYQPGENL

On to `CC(C)n1ccc(C(=O)N[C@@H]2CCCN(c3cnc(C(N)=O)c(Nc4cnn(C)c4)n3)[C@@H]2C)cc1=O` [Example D-35, 3-[(1-methyl-1H-pyrazol-4-yl)amino]-5-[(2R,3R)-2-methyl-3-[2-oxo-1-(propan-2-yl)-1,2-dihydropyridine-4-amido]piperidin-1-yl]pyrazine-2-carboxamide], for which the IC50 in experiment [1] (setting [4]) was 1000 to 10000 nM; in experiment [2] (setting [4]) it was 10 to 100 nM; in experiment [3] (setting [4]), 10 to 100 nM.
Turning to `Cc1ncc(Nc2nc(N3CCC[C@@H](NC(=O)c4ccc(C5CC5)cc4F)C3)cnc2C(N)=O)s1` [Example D-4, 5-[(3R)-3-(4-cyclopropyl-2-fluorobenzamido)piperidin-1-yl]-3-[(2-methyl-1,3-thiazol-5-yl)amino]pyrazine-2-carboxamide], the IC50 in experiment [1] (setting [4]) was 1000 to 10000 nM; in experiment [2] (setting [4]) it was > 10000 nM; in experiment [3] (setting [4]), 100 to 1000 nM.
For `C[C@@H]1[C@H](NC(=O)c2ccc(C(C)(C)N)cc2)CCCN1c1cnc(C(N)=O)c(Nc2cnn(C)c2)n1` [Example D-51, 5-[(2R,3R)-3-[4-(2-aminopropan-2-yl)benzamido]-2-methylpiperidin-1-yl]-3-[(1-methyl-1H-pyrazol-4-yl)amino]pyrazine-2-carboxamide], in that order: 10 to 100 nM, ≤ 10 nM and ≤ 10 nM.
For `C[C@@H]1[C@H](NC(=O)c2ccc(C(C)(C)O)nc2)CCCN1c1nnc(C(N)=O)c(Nc2cnn(C)c2)n1` [Example D-41, 3-[(2R,3R)-3-[6-(2-hydroxypropan-2-yl)pyridine-3-amido]-2-methylpiperidin-1-yl]-5-[(1-methyl-1H-pyrazol-4-yl)amino]-1,2,4-triazine-6-carboxamide], in that order: 100 to 1000 nM, 10 to 100 nM and 10 to 100 nM.
The matching figures for `C[C@@H]1[C@H](NC(=O)c2ccc(-c3ncccn3)cc2)CCCN1c1cnc(C(N)=O)c(Nc2cnn(C)c2)n1` [Example D-85, 3-[(1-methyl-1H-pyrazol-4-yl)amino]-5-[(2R,3R)-2-methyl-3-[4-(pyrimidin-2-yl)benzamido]piperidin-1-yl]pyrazine-2-carboxamide]: 100 to 1000 nM, 100 to 1000 nM and ≤ 10 nM.
Consider `Cc1cc(Nc2nc(N3C[C@H](NC(=O)c4ccc(C5CC5)cc4F)CC[C@H]3C)cnc2C(N)=O)sn1` [Example D-79, 5-[(2R,5R)-5-(4-cyclopropyl-2-fluorobenzamido)-2-methylpiperidin-1-yl]-3-[(3-methyl-1,2-thiazol-5-yl)amino]pyrazine-2-carboxamide], for which the IC50 in experiment [1] (setting [4]) is > 10000 nM; in experiment [2] (setting [4]) it was 1000 to 10000 nM; in experiment [3] (setting [4]) it was > 10000 nM.
For `Cc1cc(Nc2nc(N3C[C@@H](NC(=O)N(C)C)CC[C@@H]3C)cnc2C(N)=O)sn1` [Example D-76, 5-[(2S,5S)-5-[(dimethylcarbamoyl)amino]-2-methylpiperidin-1-yl]-3-[(3-methyl-1,2-thiazol-5-yl)amino]pyrazine-2-carboxamide], the results for the IC50 in experiment [1] (setting [4]), in experiment [2] (setting [4]) and in experiment [3] (setting [4]) were > 10000 nM, 1000 to 10000 nM and 1000 to 10000 nM, respectively.
Turning to `C[C@@H]1[C@H](NC(=O)c2ccc(N(C)C)cn2)CCCN1c1cnc(C(N)=O)c(Nc2cnn(C)c2)n1` [Example D-84, 5-[(2R,3R)-3-[5-(dimethylamino)pyridine-2-amido]-2-methylpiperidin-1-yl]-3-[(1-methyl-1H-pyrazol-4-yl)amino]pyrazine-2-carboxamide], the IC50 is 100 to 1000 nM in experiment [1] (setting [4]), 10 to 100 nM in experiment [2] (setting [4]) and ≤ 10 nM in experiment [3] (setting [4]).
On to `CN(C)C(=O)N[C@H]1CCCN(c2cnc(C(N)=O)c(Nc3ccc4ncccc4c3)n2)[C@@H]1CO` (racemic) [Example D-64, trans 5-[3-[(dimethylcarbamoyl)amino]-2-(hydroxymethyl)piperidin-1-yl]-3-[(quinolin-6-yl)amino]pyrazine-2-carboxamide], for which the IC50 in experiment [1] (setting [4]) is > 10000 nM; in experiment [2] (setting [4]), > 10000 nM; in experiment [3] (setting [4]) it was 1000 to 10000 nM.
Regarding `NC(=O)c1ncc(N2CCC[C@@H](NC(=O)c3ccc(C4CC4)cc3F)C2)nc1Nc1cc(-c2ccccc2)ns1` [Example D-3, 5-[(3R)-3-(4-cyclopropyl-2-fluorobenzamido)piperidin-1-yl]-3-[(3-phenyl-1,2-thiazol-5-yl)amino]pyrazine-2-carboxamide], the IC50 in experiment [1] (setting [4]), in experiment [2] (setting [4]) and in experiment [3] (setting [4]) was > 10000 nM each time.
Regarding `CN1CCN(C(=O)c2ccc(Nc3nc(N[C@H]4CC[C@@H](NC(=O)N(C)C)CC4)cnc3C(N)=O)cc2)CC1` [Example D-72, 3-{[4-(4-methylpiperazine-1-carbonyl)phenyl]amino}-5-{[(1s,4s)-4-[(dimethylcarbamoyl)amino]cyclohexyl]amino}pyrazine-2-carboxamide], the figures for the IC50 in experiment [1] (setting [4]), in experiment [2] (setting [4]) and in experiment [3] (setting [4]) were 1000 to 10000 nM, 100 to 1000 nM and 1000 to 10000 nM, respectively.
`Cn1cc(Nc2nc(N3CCC(NC(=O)c4ccc(C5CC5)cc4)C(O)C3)cnc2C(N)=O)cn1` (single isomer, unassigned) [Example D-29, Trans-5-[4-(4-cyclopropylbenzamido)-3-hydroxypiperidin-1-yl]-3-[(1-methyl-1H-pyrazol-4-yl)amino]pyrazine-2-carboxamide]: the IC50 in experiment [1] (setting [4]), in experiment [2] (setting [4]) and in experiment [3] (setting [4]) was 1000 to 10000 nM throughout.
Regarding `C[C@@H]1[C@H](NC(=O)c2ccc(C3CC3)cc2F)CCCN1c1cnc(C(N)=O)c(Nc2nc3c(s2)CN(C)CC3)n1` [Example D-62, 5-[(2R,3R)-3-(4-cyclopropyl-2-fluorobenzamido)-2-methylpiperidin-1-yl]-3-({5-methyl-4H,5H,6H,7H-[1,3]thiazolo[5,4-c]pyridin-2-yl}amino)pyrazine-2-carboxamide], the values for the IC50 in experiment [1] (setting [4]), in experiment [2] (setting [4]) and in experiment [3] (setting [4]) were > 10000 nM, > 10000 nM and 100 to 1000 nM, respectively.
For the compound `C[C@@H]1[C@H](NC(=O)c2ccc3c(c2)C(C)(C)CO3)CCCN1c1cnc(C(N)=O)c(Nc2cnn(C)c2)n1` [Example D-55, 5-[(2R,3R)-3-(3,3-dimethyl-2,3-dihydro-1-benzofuran-5-amido)-2-methylpiperidin-1-yl]-3-[(1-methyl-1H-pyrazol-4-yl)amino]pyrazine-2-carboxamide], the IC50 is 100 to 1000 nM in experiment [1] (setting [4]), 10 to 100 nM in experiment [2] (setting [4]) and ≤ 10 nM in experiment [3] (setting [4]).
As for `C[C@@H]1[C@H](NC(=O)c2ccc(C3CC3)cc2)CCCN1c1cnc(C(N)=O)c(Nc2ccc(CN3CCOCC3)cc2)n1` [Example D-316, 5-[(2R,3R)-3-(4-cyclopropylbenzamido)-2-methylpiperidin-1-yl]-3-{[4-(morpholin-4-ylmethyl)phenyl]amino}pyrazine-2-carboxamide], the half-maximal inhibitory concentration (IC50) is 100 to 1000 nM in experiment [1] (setting [4]), 10 to 100 nM in experiment [2] (setting [4]) and 10 to 100 nM in experiment [3] (setting [4]).
On to `Cn1cc(Nc2nc(N3CCC[C@@H]4[C@H]3CCN4C(=O)c3ccc(C4CC4)cc3)cnc2C(N)=O)cn1` [Example D-44, 5-[(3aR,7aR)-1-(4-cyclopropylbenzoyl)-octahydro-1H-pyrrolo[3,2-b]pyridin-4-yl]-3-[(1-methyl-1H-pyrazol-4-yl)amino]pyrazine-2-carboxamide], for which the half-inhibitory concentration (IC50) was > 10000 nM in experiment [1] (setting [4]), 1000 to 10000 nM in experiment [2] (setting [4]) and 100 to 1000 nM in experiment [3] (setting [4]).
The matching figures for `Cn1cc(Nc2nc(N3CCC(NC(=O)c4ccc(C5CC5)cc4)C(O)C3)cnc2C(N)=O)cn1` (single isomer, unassigned) [Example D-28, Trans-5-[4-(4-cyclopropylbenzamido)-3-hydroxypiperidin-1-yl]-3-[(1-methyl-1H-pyrazol-4-yl)amino]pyrazine-2-carboxamide]: 1000 to 10000 nM, 1000 to 10000 nM and > 10000 nM.
In the case of `C=CC(=O)N1CC[C@@H](N(C)c2cnc(C(N)=O)c(Nc3ccc(C4(C)CCN(C5CC5)CC4)cc3)n2)C1` [Example E-104, (R)-5-((1-acryloylpyrrolidin-3-yl)(methyl)amino)-3-(4-(1-cyclopropyl-4-methylpiperidin-4-yl)phenylammo)pyrazine-2-carboxamide], the IC50 in experiment [1] (E compounds, Table 17) was ≤ 10 nM; in experiment [2] (E compounds, Table 17) it was 10 to 100 nM; in experiment [3] (E compounds, Table 17) it was ≤ 10 nM.
